By inhibition is commonly meant the percentage by which the read-out fell short of the control. The EC50 is the concentration needed to bring the measured effect to its halfway point. Usually IC50 stands for the concentration that inhibits the measured activity by half. One may read the melting point as the temperature of the solid-liquid transition.

In brackets after ≈: the same amount, converted by molar mass. Entries after “also recorded” stand apart in the source; their conditions may differ. Like-named read-outs stand apart in the source and are kept apart here.

For data set [1], the system named is Enterococcus faecalis 15376 VanA. Briefly: Broth microdilution MIC. Conditions: Enterococcus faecalis, 15376VANA, 24 h.
The subject of data set [2] is Enterococcus faecalis ATCC 51299 VanB. Briefly: Broth microdilution MIC. As to conditions: Enterococcus faecalis, ATCC51299, 24 h. Background: In broth dilution the organism is exposed to a series of concentrations in liquid medium.
The test system of data set [3] is Staphylococcus aureus MRSA ATCC 33591. Kind of data set: Broth microdilution MIC. As to conditions: Staphylococcus aureus, 24 h.
Data set [4] relates to Bacillus subtilis ATCC 6633. Kind of data set: Broth microdilution MIC. Conditions: ATCC6633, 24 h.
For data set [5], the system named is Staphylococcus epidermidis ATCC 35984 biofilm. Kind of data set: Broth microdilution MIC. As to conditions: Staphylococcus epidermidis, ATCC35984, 24 h.
Data set [6] deals with Staphylococcus aureus MSSA ATCC 29213. Kind of data set: Broth microdilution MIC. Conditions: Staphylococcus aureus, 24 h.
The test system of data set [7] is Staphylococcus epidermidis mecA. Kind of data set: Broth microdilution MIC. As to conditions: Staphylococcus epidermidis, 24 h.
The test system of data set [8] is Enterococcus faecalis ATCC 29212. Kind of data set: Broth microdilution MIC. Conditions: ATCC29212, 24 h.
Data set [9] deals with 3CLPro (Severe acute respiratory syndrome coronavirus 2, UniProt P0DTD1). Briefly: 3CLPro FRET-based inhibition assay. The class given is biochemical, SARS-CoV-2. As to conditions: for inhibition at 100 µM: read-out: 3CLPro inhibition; for IC50: FRET, 600 nM 3CLPro, 250 nM substrate.
Data set [10] addresses T1, Human recombinant cathepsin B (exopeptidase activity) (Homo sapiens, UniProt P07858).
T1 construct: The Preparation of Catalytically Active Human Cathepsin B from Its Precursor Expressed in Escherichia coli; made in house; host or cells: Escherichia coli
Briefly: Cathepsin B exopeptidase inhibition assay. The class given is biochemical.

In data set [11] the target is Human recombinant cathepsin L (Homo sapiens, UniProt P07711). Briefly: Cathepsin L inhibition assay. The format is biochemical.
Human recombinant cathepsin L, sequence (P07711 114-333): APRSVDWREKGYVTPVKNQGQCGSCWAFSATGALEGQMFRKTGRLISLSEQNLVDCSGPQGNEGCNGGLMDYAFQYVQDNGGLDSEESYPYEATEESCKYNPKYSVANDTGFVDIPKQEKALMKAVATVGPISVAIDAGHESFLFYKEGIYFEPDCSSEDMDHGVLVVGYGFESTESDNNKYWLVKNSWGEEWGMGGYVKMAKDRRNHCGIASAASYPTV
Data set [12] is described as follows: in vitro. As to conditions: African green monkey.
Details of data set [13]: method as in PMID 32625627. Conditions: cited from earlier work.
Data set [14] has as its system SARS-CoV-2. Briefly: microbe, parasite or virus in culture. The format is cell-based. As to conditions: Vero E6 cells, read-out: SARS-CoV-2 IFA, EC50.
The test system of data set [15] is SARS-CoV-2. Kind of data set: Viral RNA reduction assay (ddPCR) in Vero E6 cells, MOI 0.01. Conditions: for EC50: Severe acute respiratory syndrome coronavirus 2, Vero C1008, 48 h, read-out: SARS-CoV-2 RNA Reduction EC50; for Therapeutic Index CC50/EC50: calculated from RNA reduction EC50 values; for SARS-CoV-2 RNA Reduction, activity at 50 µM: Vero E6 cells, MOI 0.01, tested at 50 µM.

Data set [16] deals with SARS-CoV-2. Kind of data set: microbe, parasite or virus in culture. The class given is cell-based. Conditions: Severe acute respiratory syndrome coronavirus 2, Vero C1008, 72 h; Vero E6 cells, MOI 0.04, three days, XTT; read-out: SARS-CoV-2 CPE, EC50. (Formazan colour is commonly taken as a measure of viable cells.)
Data set [17] has as its system Vero E6 cells. Conditions: dilutions from 100 µM.
The subject of data set [18] is SARS-CoV-2.
Setting [19] is: pH 5.5, substrate Z-Phe-Arg-AMC; read-out: Cathepsin L IC50.
[20] abbreviates: read-out: Exopeptidase Cathepsin B IC50; pH 5.0, substrate Abz-Gly-Ile-Val-Arg-Ala-Lys(Dnp)-OH.
[21] abbreviates: read-out: Cathepsin L IC50; pH 5.5, substrate Z-Phe-Arg-AMC.

As to `COC(=O)/C=C/C(C)=C\C=C\C(C)=C\C=C\C=C(C)\C=C\C=C(C)\C=C\C(=O)N[C@H]1C(=O)N[C@H]2C(=O)N[C@H](C(=O)N[C@H]3C(=O)N[C@H]4C(=O)N[C@H](C(=O)N[C@H](C(=O)OC)c5cc(O)cc(O)c5-c5cc4ccc5O)[C@H](O)c4ccc(cc4)Oc4cc3cc(c4O)Oc3ccc(cc3)[C@H]2O)c2cc(O)c(C)c(c2)Oc2cc1ccc2O` [Compound 7], the MIC in [1] amounted to 256 µg/mL (≈ 165 µM); in data set [2], 64 µg/mL (≈ 41.3 µM); in data set [3], 64 µg/mL (≈ 41.3 µM); in data set [4] it was 32 µg/mL (≈ 20.6 µM); in data set [5], 64 µg/mL (≈ 41.3 µM); in data set [6], 64 µg/mL (≈ 41.3 µM). Besides, the figures for the MIC in [7] and in data set [8] were 64 µg/mL (≈ 41.3 µM) and 32 µg/mL (≈ 20.6 µM), respectively.

In turn, `CC(=O)N[C@H]1[C@H](O[C@@H]2c3ccc(c(Cl)c3)Oc3cc4cc(c3O)Oc3ccc(cc3Cl)C[C@H]3NC(=O)[C@H](N)c5ccc(O)c(c5)Oc5cc(O)cc(c5)[C@H](NC3=O)C(=O)N[C@H]4C(=O)N[C@H]3C(=O)N[C@@H]2C(=O)N[C@H](C(=O)O)c2cc(O)cc(O)c2-c2cc3ccc2O)O[C@H](CO)[C@@H](O)[C@@H]1O` [Compound 2, Teicoplanin pseudoaglycone] returned an inhibition at 200 µM in data set [9] (at 200 μM) of 34%. The inhibition at 50 µM in [10] (read-out: Exopeptidase Cathepsin B relative inhibition) is 7.8%; in data set [11] (read-out: Cathepsin L relative inhibition), 0.04%.

`COC(=O)/C=C/C(C)=C\C=C\C(C)=C\C=C\C=C(C)\C=C\C=C(C)\C=C\C(=O)O` [Compound 1a, Bixin, reference compound]: in data set [12], the CC50 was over 100 µM. Besides, the MIC in data set [1], in data set [2], in [3], in data set [4], in data set [5] and in [6] was 512 µg/mL (≈ 1300 µM) throughout. Further, the MIC in data set [7] and in data set [8] was 512 µg/mL (≈ 1300 µM) in each case. For the same molecule, the acceptable daily intake in data set [13] is listed as 6 mg/kg body weight. Further, the EC50 in [14] (Severe acute respiratory syndrome coronavirus 2, Vero C1008, 72 h, MOI 0.04, three days, dilutions from 100 µM) was found to be 28 ± 8.8 µM; in data set [15] it was 5.9 ± 1.7 µM; in data set [16] it was 14 ± 3.5 µM. The “Therapeutic Index CC50/EC50” value in [15] is reported as over 17. The inhibition at 100 µM in data set [9] turned out to be 56%. Moreover, the IC50 in [10] (pH 5.0, substrate Abz-Gly-Ile-Val-Arg-Ala-Lys(Dnp)-OH; read-out: Exopeptidase Cathepsin B IC50) turned out to be 14.6 ± 1.71 µM; in data set [11] (setting [19]), 41.9 ± 1.12 µM.

`CC(/C=C/C=C(C)/C=C/C(=O)O)=C\C=C\C=C(C)\C=C\C=C(C)\C=C\C(=O)O` (stereo in doubt) [Compound 1d, norbixin] registered a CC50 in data set [17] of over 100 µM. The “SARS-CoV-2 RNA Reduction, activity at 50 µM” value in data set [15] is “completely inactive”; in data set [15] (listed as 1d (norbixin)), “not active at 50 µM”. In addition, the 50% inhibitory concentration (IC50) in data set [9] was determined as 36.1 ± 11.7 µM.

`CC1=C(/C=C/C(C)=C/C=C/C(C)=C/C=C/C=C(C)/C=C/C=C(\C)C(=O)O)C(C)(C)CCC1` [Compound 1c, β-apo-8′-carotenoic acid] displayed a melting point of 194 to 195 °C. The CC50 at 3 days in [12] is over 100 µM. The 50% effective concentration (EC50) in [14] (Severe acute respiratory syndrome coronavirus 2, Vero C1008, MOI 0.04, * measurement from 50 µM) amounted to 31 ± 7.9 µM. In data set [15], the EC50 was 15 ± 2 µM and the “Therapeutic Index CC50/EC50” value is given as over 6.7. In data set [9], this molecule showed an IC50 of 73 ± 7.1 µM. The IC50 in data set [10] (read-out: Exopeptidase Cathepsin B IC50) was 21.3 ± 1.2 µM. Further, the IC50 in [11] (setting [19]) turned out to be 76 ± 1.74 µM. Besides, in [16], the half-maximal effective concentration (EC50) turned out to be 14 ± 2.2 µM.

On to `COC(=O)/C=C/C(C)=C\C=C\C(C)=C\C=C\C=C(C)\C=C\C=C(C)\C=C\C(=O)N[C@H]1C(=O)N[C@@H]2Cc3ccc(c(Cl)c3)Oc3cc4cc(c3O)Oc3ccc(cc3Cl)[C@@H](O[C@@H]3O[C@H](CO)[C@@H](O)[C@H](O)[C@H]3NC(C)=O)[C@@H]3NC(=O)[C@H](NC(=O)[C@@H]4NC(=O)[C@@H](NC2=O)c2cc(O)cc(c2)Oc2cc1ccc2O)c1ccc(O)c(c1)-c1c(O)cc(O)cc1[C@@H](C(=O)O)NC3=O` [Compound 5a], for which the MIC in [1] was 16 µg/mL (≈ 9 µM); in data set [2], 16 µg/mL (≈ 9 µM); in [3], 0.5 µg/mL (≈ 0.281 µM); in data set [4], 32 µg/mL (≈ 18 µM); in data set [5] it was 0.5 µg/mL (≈ 0.281 µM); in data set [6], 16 µg/mL (≈ 9 µM). The MIC in data set [7] and in data set [8] was 16 µg/mL (≈ 9 µM) each time. In data set [17], the CC50 is over 100 µM. For the same molecule, the half-maximal inhibitory concentration (IC50) in [9] stood at 13.9 ± 1.73 µM; in data set [10] (setting [20]), 47.9 ± 1.07 µM; in [11] (setting [21]), 42.4 ± 1.86 µM. In data set [18], the “Therapeutic Index CC50/EC50” value is over 17.

`COC(=O)/C(C)=C/C=C/C(C)=C/C=C/C=C(C)/C=C/C=C(\C)C(=O)O` [Compound 1b, crocetin monomethyl ester] showed a melting point of 204 to 205 °C. Moreover, the “SARS-CoV-2 RNA Reduction, activity at 50 µM” value in data set [15] is given as “did not show antiviral activity; also recorded: not active at 50 µM”. In [9], the inhibition at 100 µM stood at 24%.

Turning to `CC(=O)NC1C(OC2c3ccc(c(Cl)c3)Oc3cc4cc(c3O)Oc3ccc(cc3Cl)CC3NC(=O)C(NC(=O)C(C)=CC=CC(C)=CC=CC=C(C)C=CC=C(C)C=CC5=C(C)CCCC5(C)C)c5ccc(O)c(c5)Oc5cc(O)cc(c5)C(NC3=O)C(=O)NC4C(=O)NC3C(=O)NC2C(=O)NC(C(=O)O)c2cc(O)cc(O)c2-c2cc3ccc2O)OC(CO)C(O)C1O` (stereo not shown) [Compound 5c], the MIC came out at 8 µg/mL (≈ 4.4 µM) in data set [1]; 8 µg/mL (≈ 4.4 µM) in data set [2]; 1 µg/mL (≈ 0.55 µM) in data set [3]; 16 µg/mL (≈ 8.81 µM) in data set [4]; 0.5 µg/mL (≈ 0.275 µM) in data set [5]; 8 µg/mL (≈ 4.4 µM) in data set [6]. The MIC in data set [7] amounted to 0.5 µg/mL (≈ 0.275 µM); in data set [8] it was 4 µg/mL (≈ 2.2 µM). For the same molecule, the CC50 in data set [17] is over 100 µM. In addition, the concentration for half-maximal inhibition (IC50) was 34.5 ± 12.5 µM in data set [9], 56.5 ± 1.06 µM in [10] (setting [20]) and 47.1 ± 1.05 µM in data set [11] (setting [21]). In data set [18], the “Therapeutic Index CC50/EC50” value was over 22.7.

With `COC(=O)/C(C)=C/C=C/C(C)=C/C=C/C=C(C)/C=C/C=C(\C)C(=O)N[C@H]1C(=O)N[C@@H]2Cc3ccc(c(Cl)c3)Oc3cc4cc(c3O)Oc3ccc(cc3Cl)[C@@H](O[C@@H]3O[C@H](CO)[C@@H](O)[C@H](O)[C@H]3NC(C)=O)[C@@H]3NC(=O)[C@H](NC(=O)[C@@H]4NC(=O)[C@@H](NC2=O)c2cc(O)cc(c2)Oc2cc1ccc2O)c1ccc(O)c(c1)-c1c(O)cc(O)cc1[C@@H](C(=O)O)NC3=O` [Compound 5b], the MIC was found to be 8 µg/mL (≈ 4.63 µM) in data set [1]; 8 µg/mL (≈ 4.63 µM) in data set [2]; 2 µg/mL (≈ 1.16 µM) in [3]; 16 µg/mL (≈ 9.27 µM) in data set [4]; 0.5 µg/mL (≈ 0.29 µM) in [5]; 8 µg/mL (≈ 4.63 µM) in data set [6]. In addition, the MIC is 2 µg/mL (≈ 1.16 µM) in [7] and 4 µg/mL (≈ 2.32 µM) in data set [8]. The CC50 in data set [17] is over 100 µM. In addition, the IC50 in data set [10] (setting [20]) was 99.5 ± 1.16 µM; in data set [11] (setting [21]) it was 103 ± 1.12 µM. Besides, the “Therapeutic Index CC50/EC50” value in data set [18] is given as over 19.2.

Values taken from article PMC8619593 (Pharmaceuticals, 2021).
